Values quoted from earlier work in article PMC9775177, “NLRP3-Inflammasome Inhibition with IZD334 Does Not Reduce Cardiac Damage in a Pig Model of Myocardial Infarction” (Biomedicines, 2022).

Experiments:
[1] = test system: large animal model of MI; parameters: method as in PMID 27432019; settings: cited from earlier work
[2] = test system: IR injury in mice; parameters: method as in PMID 30747785; settings: cited from earlier work
[3] = large animal model, 7 days following MI

CC(C)(O)c1coc(S(=O)(=O)NC(=O)Nc2c3c(cc4c2CCC4)CCC3)c1 [MCC950]
IS (infarct size) [1, 3]: dose-dependently reduced IS | LV function [1, 3]: improvement in LV function | circulating markers of inflammation ([1]; pigs treated with MCC950): only modestly lower

CS(=O)(=O)CCC#N [OLT1177]
infarct development [2]: limited infarct development | left ventricular dysfunction [2]: prevented left ventricular dysfunction
